Test results published in patent US20090029981A1, “SUBSTITUTED 4-PHENYLPIPERIDINES” (priority 2006, published 2009).

target: T1, renin (Homo sapiens, UniProt P00797); experiment: Formation of angiotensin I in human plasma (in vitro test of Nussberger et al.), radio-immunoassay; assay type: biochemical; conditions: one range stated for the listed examples together, about, read-out: IC50, concentration of the inhibitor which reduces the formation of angiotensin I by 50%
T1 construct: This test measures the formation of angiotensin I in human plasma; from tissue; host or cells: human plasma
T1 sequence (P00797 67-406): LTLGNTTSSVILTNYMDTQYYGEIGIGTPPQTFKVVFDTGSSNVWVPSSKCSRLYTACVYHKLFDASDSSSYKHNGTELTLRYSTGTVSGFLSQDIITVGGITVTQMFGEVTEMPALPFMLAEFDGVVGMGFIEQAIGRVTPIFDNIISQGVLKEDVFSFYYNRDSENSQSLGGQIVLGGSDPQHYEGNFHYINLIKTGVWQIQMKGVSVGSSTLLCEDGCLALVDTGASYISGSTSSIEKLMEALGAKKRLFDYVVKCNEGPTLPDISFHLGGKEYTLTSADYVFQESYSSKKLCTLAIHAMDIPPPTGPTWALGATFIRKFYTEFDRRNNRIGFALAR
Description: The compounds of the formula (I) or (IA), and their pharmaceutically acceptable salts have an inhibitory effect on the natural enzyme renin. The latter passes from the kidneys into the blood and there brings about the cleavage of angiotensinogen to form the decapeptide angiotensin I which is then cleaved in the lung, the kidneys and other organs to the octa-peptide angiotensin II. Angiotensin II raises the blood pressure both directly by arterial constriction, and indirectly by releasing the hormone aldosterone, which retains sodium ions, from the adrenals, which is associated with an increase in the extracellular fluid volume. This increase is attributable to the effect of angiotensin II itself or of the heptapeptide angiotensin III formed therefrom as cleavage product. Inhibitors of the enzymatic activity of renin bring about a reduction in the formation of angiotensin I and, as a consequence thereof, the formation of a smaller amount of angiotensin II. The reduced concentration of this active peptide hormone is the direct cause of the blood pressure-lowering effect of renin inhibitors.
The effect of renin inhibitors is detected inter alia experimentally by means of in vitro tests where the reduction in the formation of angiotensin I is measured in various systems (human plasma, purified human renin together with synthetic or natural renin substrate). The following in vitro test of Nussberger et al. (1987) J. Cardiovascular Pharmacol., Vol. 9, pp. 39-44, is used inter alia. This test measures the formation of angiotensin I in human plasma. The amount of angiotensin I formed is determined in a subsequent radio-immunoassay. The effect of inhibitors on the formation of angiotensin I is tested in this system by adding various concentrations of these substances. The IC50 is defined as the concentration of the particular inhibitor which reduces the formation of angiotensin I by 50%. The compounds of the present invention show inhibitory effects in the in vitro systems at minimal concentrations of about 10^−6 to about 10^−10 mol/l.

IC50, 3.8 to 814 nM:
C#CCO[C@@H]1CNC[C@H](OCc2ccc3c(c2)N(CCCOC)CCO3)C1c1ccc(OC)cc1 (stereo in doubt) [Example 5, 6-[(3R,4R,5S)-4-(4-Methoxyphenyl)-5-prop-2-ynyloxypiperidin-3-yloxymethyl]-4-(3-methoxy-propyl)-3,4-dihydro-2H-benzo[1,4]oxazine]
COCCCN1CCOc2ccc(CO[C@H]3CNC[C@@H](OCC#N)[C@@H]3c3ccc(OC)cc3)cc21 [Example 1, {(3S,4R,5R)-4-(4-Methoxyphenyl)-5-[4-(3-methoxypropyl)-3,4-dihydro-2H-benzo[1,4]oxazin-6-ylmethoxy]piperidin-3-yloxyl}acetonitrile]
COCCCN1CCOc2ccc(CO[C@H]3CNC[C@@H](OC[C@H](O)COC)[C@@H]3c3ccc(OC)cc3)cc21 [Example 2, (R)-1-Methoxy-3-{(3S,4R,5R)-4-(4-methoxyphenyl)-5-[4-(3-methoxypropyl)-3,4-dihydro-2H-benzo[1,4]oxazin-6-ylmethoxy]piperidin-3-yloxy}propan-2-ol]
COCCCN1CCOc2ccc(CO[C@H]3CNC[C@@H](OCC(C)(C)OC)[C@@H]3c3ccc(OC)cc3)cc21 [Example 8, 6-[(3R,4R,5S)-5-(2-Methoxy-2-methylpropoxy)-4-(4-methoxyphenyl)piperidin-3-yloxymethyl]-4-(3-methoxypropyl)-3,4-dihydro-2H-benzo[1,4]oxazine]
COCCCN1CCOc2ccc(CO[C@H]3CNC[C@@H](OCC(=O)N4[C@H](C)COC[C@@H]4C)[C@@H]3c3ccc(OC)cc3)cc21 [Example 61, 1-((3S,5R)-3,5-Dimethylmorpholin-4-yl)-2-{(3S,4R,5R)-4-(4-methoxyphenyl)-5-[4-(3-methoxypropyl)-3,4-dihydro-2H-benzo[1,4]oxazin-6-ylmethoxy]piperidin-3-yloxy}-ethanone]
COCCCN1CCOc2ccc(CO[C@H]3CNC[C@@H](OCCN4[C@H](C)COC[C@@H]4C)[C@@H]3c3ccc(OC)cc3)cc21 [Example 68, 6-[(3R,4R,5S)-5-[2-((3R,5S)-3,5-Dimethylmorpholin-4-yl)ethoxy]-4-(4-methoxy-phenyl)piperidin-3-yloxymethyl]-4-(3-methoxypropyl)-3,4-dihydro-2H-benzo[1,4]oxazine]
COCCCN1CCOc2ccc(CO[C@H]3CNC[C@@H](OC[C@H](O)COC)[C@@H]3c3ccc(SCCOC)cc3)cc21 [Example 70, (R)-1-Methoxy-3-{(3S,4R,5R)-4-[4-(2-methoxyethylsulfanyl)phenyl]-5-[4-(3-methoxy-propyl)-3,4-dihydro-2H-benzo[1,4]oxazin-6-ylmethoxy]piperidin-3-yloxy}propan-2-ol]
COCCCSc1ccc([C@@H]2[C@@H](OCc3ccc4c(c3)N(CCCOC)CCO4)CNC[C@H]2OC[C@H](O)COC)cc1 [Example 71, (R)-1-Methoxy-3-{(3S,4R,5R)-5-[4-(3-methoxypropyl)-3,4-dihydro-2H-benzo[1,4]oxazin-6-ylmethoxy]-4-[4-(3-methoxypropylsulfanyl)phenyl]piperidin-3-yloxy}propan-2-ol]
COCCCN1CCOc2ccc(CO[C@H]3CNC[C@@H](OC[C@H](O)COC)[C@@H]3c3ccc(C#N)cc3)cc21 [Example 73, 4-{(3S,4R,5R)-3((R)-2-Hydroxy-3-methoxypropoxy)-5-[4-(3-methoxypropyl)-3,4-dihydro-2H-benzo[1,4]oxazin-6-ylmethoxy]piperidin-4-yl}benzonitrile]
COCCCN1CCOc2ccc(CO[C@H]3CNC[C@@H](OC[C@@H](O)COC)[C@@H]3c3ccc(C#N)cc3)cc21 [Example 74, 4-{(3S,4R,5R)-3((S)-2-Hydroxy-3-methoxypropoxy)-5-[4-(3-methoxypropyl)-3,4-dihydro-2H-benzo[1,4]oxazin-6-ylmethoxy]piperidin-4-yl}-benzonitrile]
COCCCN1CCOc2ccc(CO[C@H]3CNC[C@@H](CNC(C)C)[C@@H]3c3ccc(OC)cc3)cc21 [Example 87, Isopropyl-{(3S,4R,5R)-4-(4-methoxyphenyl)-5-[4-(3-methoxypropyl)-3,4-dihydro-2H-benzo[1,4]oxazin-6-ylmethoxy]piperidin-3-ylmethyl}amine]
COCCCN1CCOc2ccc(CO[C@H]3CNC[C@@H](CNC(C)=O)[C@@H]3c3ccc(OC)cc3)cc21 [Example 91, N-{(3S,4R,5R)-4-(4-Methoxyphenyl)-5-[4-(3-methoxypropyl)-3,4-dihydro-2H-benzo[1,4]oxazin-6-ylmethoxy]piperidin-3-ylmethyl}acetamide]
